Results reported in ChEMBL document CHEMBL1667750, “Synthesis and biological activity of 7H-benzo[4,5]indolo[2,3-b]-quinoxaline derivatives” (Eur J Med Chem, 2011).
Calls of active or inactive are those of the source. No cut-off for these calls is given here.

Tests used:
Calf thymus DNA = assay: Binding affinity to calf thymus DNA by ethidium bromide displacement assay; format: nucleic-acid assay, Bos taurus; conditions: for logKa: Bos taurus
L929 = assay: Decrease in interferon inducing activity in VSV infected in mouse L929 cells at 1.1 uM; format: functional, cell-based
[1] = tested on: Vesicular stomatitis virus; assay: Antiviral activity against VSV infected in mouse L929 cells assessed as protection against virus-induced cytopathic effect treated immediately after viral infection at 12.5 uM; format: functional
[2] = tested on: Vesicular stomatitis virus; assay: Antiviral activity against VSV infected in mouse L929 cells assessed as protection against virus-induced cytopathic effect treated 24 hrs before viral infection at 3.1 uM; format: functional
[3] = tested on: Vesicular stomatitis virus; assay: Antiviral activity against VSV infected in mouse L929 cells assessed as protection against virus-induced cytopathic effect treated 24 hrs before viral infection at 13 uM; format: functional
[4] = tested on: Vesicular stomatitis virus; assay: Antiviral activity against VSV infected in mouse L929 cells assessed as protection against virus-induced cytopathic effect treated 24 hrs before viral infection at 6.2 uM; format: functional
[5] = tested on: Vesicular stomatitis virus; assay: Antiviral activity against VSV infected in mouse L929 cells assessed as protection against virus-induced cytopathic effect treated immediately after viral infection at 6.2 uM; format: functional
[6] = tested on: Vesicular stomatitis virus; assay: Antiviral activity against VSV infected in mouse L929 cells assessed as protection against virus-induced cytopathic effect treated immediately after viral infection at 25 uM; format: functional
[7] = tested on: Vesicular stomatitis virus; assay: Antiviral activity against VSV infected in mouse L929 cells assessed as protection against virus-induced cytopathic effect treated immediately after viral infection at 50 uM; format: functional
[8] = tested on: Vesicular stomatitis virus; assay: Antiviral activity against VSV infected in mouse L929 cells assessed as protection against virus-induced cytopathic effect treated 24 hrs before viral infection at 53 uM; format: functional
[9] = Cytotoxicity against mouse L929 cells; format: cell-based
[10] = tested on: Vesicular stomatitis virus; assay: Antiviral activity against VSV infected in mouse L929 cells assessed as protection against virus-induced cytopathic effect treated immediately after viral infection at 21.4 uM; format: functional
[11] = tested on: Vesicular stomatitis virus; assay: Antiviral activity against VSV infected in mouse L929 cells assessed as protection against virus-induced cytopathic effect treated immediately after viral infection at 5.5 uM; format: functional
[12] = tested on: Vesicular stomatitis virus; assay: Antiviral activity against VSV infected in mouse L929 cells assessed as protection against virus-induced cytopathic effect treated 24 hrs before viral infection at 0.2 uM; format: functional
[13] = tested on: Vesicular stomatitis virus; assay: Antiviral activity against VSV infected in mouse L929 cells assessed as protection against virus-induced cytopathic effect treated immediately after viral infection at 27.5 uM; format: functional
[14] = tested on: Vesicular stomatitis virus; assay: Antiviral activity against VSV infected in mouse L929 cells assessed as protection against virus-induced cytopathic effect treated 24 hrs before viral infection at 110 uM; format: functional
[15] = tested on: Vesicular stomatitis virus; assay: Antiviral activity against VSV infected in mouse L929 cells assessed as protection against virus-induced cytopathic effect treated 24 hrs before viral infection at 3 uM; format: functional
[16] = tested on: Vesicular stomatitis virus; assay: Antiviral activity against VSV infected in mouse L929 cells assessed as protection against virus-induced cytopathic effect treated immediately after viral infection at 21.3 uM; format: functional
[17] = tested on: Vesicular stomatitis virus; assay: Antiviral activity against VSV infected in mouse L929 cells assessed as protection against virus-induced cytopathic effect treated immediately after viral infection at 6.7 uM; format: functional
[18] = tested on: Vesicular stomatitis virus; assay: Antiviral activity against VSV infected in mouse L929 cells assessed as protection against virus-induced cytopathic effect treated 24 hrs before viral infection at 30 uM; format: functional
[19] = tested on: Vesicular stomatitis virus; assay: Antiviral activity against VSV infected in mouse L929 cells assessed as protection against virus-induced cytopathic effect treated immediately after viral infection at 15 uM; format: functional
[20] = tested on: Vesicular stomatitis virus; assay: Antiviral activity against VSV infected in mouse L929 cells assessed as protection against virus-induced cytopathic effect treated immediately after viral infection at 7.1 uM; format: functional
[21] = tested on: Vesicular stomatitis virus; assay: Antiviral activity against VSV infected in mouse L929 cells assessed as protection against virus-induced cytopathic effect treated 24 hrs before viral infection at 113 uM; format: functional

For CCCCN(CC)CCn1c2ccccc2c2nc3ccccc3nc21, the pIC50 (Calf thymus DNA) was 3.91, the logKa (Calf thymus DNA) was 6.01 and the Activity (L929) was “Active”. It also gave an Emax at 12.5 µM [1] of 50% and an Emax at 3.1 µM [2] of 50%.
In the case of CN1CCN(CCn2c3ccccc3c3nc4ccccc4nc32)CC1, the pIC50 (Calf thymus DNA) is reported as 3.77, the logKa (Calf thymus DNA) is reported as 5.87 and the Activity (L929) is reported as “Active”. The Emax at 12.5 µM [1] was 100% and the Emax at 13 µM [3] was 85%.
With CC1CCCCN1CCn1c2ccccc2c2nc3ccccc3nc21 (stereo not drawn) the pIC50 (Calf thymus DNA) was 4.08, the logKa (Calf thymus DNA) was 6.19 and the Emax at 6.2 µM [4] was 90%. For the same molecule, the Activity (L929) was “Active” and the Emax at 6.2 µM [5] was 77%.
With c1ccc2nc3c(nc2c1)c1ccccc1n3CCN1CCCCC1 the pIC50 (Calf thymus DNA) was 3.91, the logKa (Calf thymus DNA) was 6.01 and the Activity (L929) was “Active”. It also gave an Emax at 6.2 µM [5] of 75% and an Emax at 3.1 µM [2] of 90%.
With CCCCN(C)CCn1c2ccccc2c2nc3ccccc3nc21 the pIC50 (Calf thymus DNA) was 3.82, the logKa (Calf thymus DNA) was 5.93 and the Emax at 25 µM [6] was 80%. For the same molecule, the Activity (L929) was “Active” and the Emax at 3.1 µM [2] was 75%.
With CC1CCN(CCn2c3ccccc3c3nc4ccccc4nc32)CC1 the pIC50 (Calf thymus DNA) was 3.88, the logKa (Calf thymus DNA) was 5.98 and the Activity (L929) was “Active”. It also gave an Emax at 12.5 µM [1] of 50% and an Emax at 13 µM [3] of 90%.
For c1ccc2nc3c(nc2c1)c1ccccc1n3CCN1CCCCCC1, the pIC50 (Calf thymus DNA) was 4.06, the logKa (Calf thymus DNA) was 6.16 and the Emax at 6.2 µM [4] was 90%. For the same molecule, the Activity (L929) was “Active” and the Emax at 50 µM [7] was 100%.
Work on CC1CCN(CCn2c3ccc4ccccc4c3c3nc4ccccc4nc32)CC1 yielded an Emax at 53 µM [8] of 30%, a pIC50 (Calf thymus DNA) of 4.48 and a logKa (Calf thymus DNA) of 6.58. The CC50 [9] was over 214 µM, the Activity (L929) was “Active” and the Emax at 21.4 µM [10] was 51%.
In the case of c1ccc2c(c1)ccc1c2c2nc3ccccc3nc2n1CCN1CCOCC1, the pIC50 (Calf thymus DNA) is reported as 4.84, the logKa (Calf thymus DNA) is reported as 6.94 and the Activity (L929) is reported as “Active”. It also gave an Emax at 5.5 µM [11] of 50% and an Emax at 0.2 µM [12] of 10%.
Work on c1ccc2c(c1)ccc1c2c2nc3ccccc3nc2n1CCN1CCCCC1 yielded a pIC50 (Calf thymus DNA) of 4.51, a logKa (Calf thymus DNA) of 6.61 and a CC50 [9] of over 221 µM. For the same molecule, the Emax at 27.5 µM [13] was 55%, the Emax at 110 µM [14] was 20% and the Activity (L929) was “Active”.
CCCN(CCC)CCn1c2ccc3ccccc3c2c2nc3ccccc3nc21 showed a pIC50 (Calf thymus DNA) of 4.8, a logKa (Calf thymus DNA) of 6.91 and a CC50 [9] of over 42.6 µM. The Emax at 3 µM [15] was 16%, the Emax at 21.3 µM [16] was 48% and the Activity (L929) was “Active”.
Molecule CC1CCCCN1CCn1c2ccc3ccccc3c2c2nc3ccccc3nc21 (stereo not drawn) has an Emax at 53 µM [8] of 20%, an Emax at 6.7 µM [17] of 50% and a pIC50 (Calf thymus DNA) of 4.73. For the same molecule, the logKa (Calf thymus DNA) was 6.83, the CC50 [9] was 113 µM and the Activity (L929) was “Active”.
Work on CN(C)CCn1c2ccccc2c2nc3ccccc3nc21 yielded a pIC50 (Calf thymus DNA) of 3.83, a logKa (Calf thymus DNA) of 5.93 and an Emax at 25 µM [6] of 100%. The Activity (L929) was “Active” and the Emax at 3.1 µM [2] was 75%.
For CCN(CC)CCn1c2ccccc2c2nc3ccccc3nc21, the pIC50 (Calf thymus DNA) was 3.97, the logKa (Calf thymus DNA) was 6.07 and the Emax at 6.2 µM [4] was 90%. For the same molecule, the Activity (L929) was “Active” and the Emax at 12.5 µM [1] was 100%.
With CCCN(CCC)CCn1c2ccccc2c2nc3ccccc3nc21 the pIC50 (Calf thymus DNA) was 3.99, the logKa (Calf thymus DNA) was 6.09 and the Activity (L929) was “Active”. It also gave an Emax at 12.5 µM [1] of 75% and an Emax at 13 µM [3] of 90%.
Molecule c1ccc2nc3c(nc2c1)c1ccccc1n3CCN1CCOCC1 has a pIC50 (Calf thymus DNA) of 3.78, a logKa (Calf thymus DNA) of 5.89 and a CC50 [9] of 1070 µM. The Activity (L929) was “Active”, the Emax at 6.2 µM [5] was 30% and the Emax at 13 µM [3] was 85%.
Molecule CN(C)CCn1c2ccc3ccccc3c2c2nc3ccccc3nc21 has a pIC50 (Calf thymus DNA) of 4.84, a logKa (Calf thymus DNA) of 6.94 and a CC50 [9] of 49.9 µM. The Emax at 30 µM [18] was 21%, the Activity (L929) was “Active” and the Emax at 15 µM [19] was 45%.
In the case of c1ccc2nc3c(nc2c1)c1ccccc1n3CCN1CCCC1, the pIC50 (Calf thymus DNA) is reported as 3.95, the logKa (Calf thymus DNA) is reported as 6.05 and the Activity (L929) is reported as “Active”. It also gave an Emax at 12.5 µM [1] of 100% and an Emax at 3.1 µM [2] of 85%.
Work on CN1CCN(CCn2c3ccc4ccccc4c3c3nc4ccccc4nc32)CC1 yielded an Emax at 6.7 µM [17] of 80%, a pIC50 (Calf thymus DNA) of 4.84 and a logKa (Calf thymus DNA) of 6.94. The CC50 [9] was 21.4 µM, the Activity (L929) was “Active” and the Emax at 13 µM [3] was 17%.
CCN(CC)CCn1c2ccc3ccccc3c2c2nc3ccccc3nc21 showed a pIC50 (Calf thymus DNA) of 4.69, a logKa (Calf thymus DNA) of 6.79 and a CC50 [9] of 180 µM. The Emax at 7.1 µM [20] was 56%, the Activity (L929) was “Active” and the Emax at 113 µM [21] was 14%.
